This note sets out measurements from paper PMC12621043, “Un-LOK-ing a New Approach for Conformational Selective Targeting of STK10 (LOK)” (ACS Medicinal Chemistry Letters, 2025).

Common to all, as to test: DSF Tm panel
What all share (type): binding
What all share (details): 10 μM compound

The target in experiment [1] is T1, BRD4 (BRD4A) (Homo sapiens, UniProt O60885).
T1 construct: purchased in-house DSF kinase panel (SGC-style construct names; the trailing letter is the construct ID)

Experiment [2] addresses T2, PIM3A (Homo sapiens, UniProt Q86V86).
T2 construct: purchased in-house DSF kinase panel (SGC-style construct names; the trailing letter is the construct ID)

In experiment [3] the target is T3, ULK1A (Homo sapiens, UniProt O75385).
T3 construct: purchased in-house DSF kinase panel (SGC-style construct names; the trailing letter is the construct ID)
T3 sequence (O75385 1-283): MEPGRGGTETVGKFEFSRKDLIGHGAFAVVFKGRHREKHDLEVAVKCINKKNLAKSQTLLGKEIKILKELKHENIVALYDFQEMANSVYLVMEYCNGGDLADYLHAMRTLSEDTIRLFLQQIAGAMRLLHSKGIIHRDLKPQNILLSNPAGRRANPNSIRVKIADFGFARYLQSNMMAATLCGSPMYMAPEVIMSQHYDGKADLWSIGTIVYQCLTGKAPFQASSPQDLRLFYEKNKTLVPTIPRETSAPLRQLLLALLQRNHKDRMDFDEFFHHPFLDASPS

In experiment [4] the target is T4, CLK3A (Homo sapiens, UniProt P49761).
T4 construct: purchased in-house DSF kinase panel (SGC-style construct names; the trailing letter is the construct ID)
T4 sequence (P49761 127-484): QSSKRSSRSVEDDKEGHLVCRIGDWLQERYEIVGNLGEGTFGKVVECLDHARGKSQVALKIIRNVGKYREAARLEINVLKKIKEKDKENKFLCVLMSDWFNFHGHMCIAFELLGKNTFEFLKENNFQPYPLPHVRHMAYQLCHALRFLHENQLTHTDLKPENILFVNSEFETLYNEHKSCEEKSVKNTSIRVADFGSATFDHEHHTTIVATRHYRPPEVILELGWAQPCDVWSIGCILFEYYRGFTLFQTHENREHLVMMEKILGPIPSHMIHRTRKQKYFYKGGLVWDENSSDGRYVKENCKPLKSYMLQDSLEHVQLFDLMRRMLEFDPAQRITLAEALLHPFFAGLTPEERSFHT

Experiment [5] addresses T5, TTKA (Homo sapiens, UniProt P33981).
T5 construct: purchased in-house DSF kinase panel (SGC-style construct names; the trailing letter is the construct ID)
T5 sequence (P33981 519-808): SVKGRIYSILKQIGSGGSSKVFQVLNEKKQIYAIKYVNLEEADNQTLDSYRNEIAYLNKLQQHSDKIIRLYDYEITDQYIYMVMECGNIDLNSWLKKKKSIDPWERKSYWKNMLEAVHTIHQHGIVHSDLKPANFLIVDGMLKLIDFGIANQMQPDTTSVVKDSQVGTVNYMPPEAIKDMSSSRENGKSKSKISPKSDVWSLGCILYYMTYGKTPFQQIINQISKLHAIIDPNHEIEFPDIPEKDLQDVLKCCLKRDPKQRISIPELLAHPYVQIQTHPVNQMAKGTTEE

For experiment [6], the target named is T6, CHEK2A (Homo sapiens, UniProt O96017).
T6 construct: purchased in-house DSF kinase panel (SGC-style construct names; the trailing letter is the construct ID)
T6 sequence (O96017 210-531): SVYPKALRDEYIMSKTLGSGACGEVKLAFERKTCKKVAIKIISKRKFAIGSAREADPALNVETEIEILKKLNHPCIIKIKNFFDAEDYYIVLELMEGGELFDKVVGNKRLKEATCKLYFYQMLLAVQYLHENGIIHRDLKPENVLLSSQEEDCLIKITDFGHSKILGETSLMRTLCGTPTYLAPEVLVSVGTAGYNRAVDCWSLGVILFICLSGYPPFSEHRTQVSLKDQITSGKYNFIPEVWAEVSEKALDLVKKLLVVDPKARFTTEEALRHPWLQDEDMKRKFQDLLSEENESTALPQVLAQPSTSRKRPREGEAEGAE

The target of experiment [7] is T7, MAP2K4A (Homo sapiens, UniProt P45985).
T7 construct: purchased in-house DSF kinase panel (SGC-style construct names; the trailing letter is the construct ID)
T7 sequence (P45985 102-367): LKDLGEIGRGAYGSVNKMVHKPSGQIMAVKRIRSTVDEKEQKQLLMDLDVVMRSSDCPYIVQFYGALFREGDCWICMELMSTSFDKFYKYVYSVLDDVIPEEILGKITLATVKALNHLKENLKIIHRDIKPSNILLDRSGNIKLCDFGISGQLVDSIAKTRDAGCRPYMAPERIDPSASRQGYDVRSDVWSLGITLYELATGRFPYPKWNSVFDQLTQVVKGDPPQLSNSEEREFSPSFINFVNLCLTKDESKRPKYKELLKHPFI

The target of experiment [8] is T8, BMPR2A (Homo sapiens, UniProt Q13873).
T8 construct: purchased in-house DSF kinase panel (SGC-style construct names; the trailing letter is the construct ID)
T8 sequence (Q13873 27-1038): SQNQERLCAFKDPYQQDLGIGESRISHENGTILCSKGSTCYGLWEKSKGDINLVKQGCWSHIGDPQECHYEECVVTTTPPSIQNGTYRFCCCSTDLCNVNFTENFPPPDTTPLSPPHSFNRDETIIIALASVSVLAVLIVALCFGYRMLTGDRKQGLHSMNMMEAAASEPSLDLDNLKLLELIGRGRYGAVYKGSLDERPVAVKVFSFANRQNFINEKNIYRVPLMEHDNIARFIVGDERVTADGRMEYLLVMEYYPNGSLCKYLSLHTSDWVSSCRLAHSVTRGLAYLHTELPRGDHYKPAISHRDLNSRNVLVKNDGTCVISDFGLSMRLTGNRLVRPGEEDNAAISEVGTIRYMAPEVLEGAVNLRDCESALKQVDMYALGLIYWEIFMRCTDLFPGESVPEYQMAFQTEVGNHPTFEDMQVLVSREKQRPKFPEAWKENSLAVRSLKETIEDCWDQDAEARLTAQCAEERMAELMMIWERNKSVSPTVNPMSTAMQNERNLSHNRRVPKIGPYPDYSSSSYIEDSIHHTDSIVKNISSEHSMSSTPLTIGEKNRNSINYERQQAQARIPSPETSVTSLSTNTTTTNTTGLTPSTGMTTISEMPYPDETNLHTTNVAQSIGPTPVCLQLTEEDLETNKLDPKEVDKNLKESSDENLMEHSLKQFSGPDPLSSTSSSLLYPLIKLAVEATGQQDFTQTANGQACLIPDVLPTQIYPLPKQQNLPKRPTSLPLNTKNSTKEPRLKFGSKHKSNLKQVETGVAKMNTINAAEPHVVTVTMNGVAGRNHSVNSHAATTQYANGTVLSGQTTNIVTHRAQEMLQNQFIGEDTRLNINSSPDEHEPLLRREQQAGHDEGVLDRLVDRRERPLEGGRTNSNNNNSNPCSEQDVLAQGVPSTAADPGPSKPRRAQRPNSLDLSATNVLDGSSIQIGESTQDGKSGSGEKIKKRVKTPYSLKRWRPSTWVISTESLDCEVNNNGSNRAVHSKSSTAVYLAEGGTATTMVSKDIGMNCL

Experiment [9] has as its target T9, PAK1A (Homo sapiens, UniProt Q13153).
T9 construct: purchased in-house DSF kinase panel (SGC-style construct names; the trailing letter is the construct ID)

In experiment [10] the target is T10, SRCA (Homo sapiens, UniProt P12931).
T10 construct: purchased in-house DSF kinase panel (SGC-style construct names; the trailing letter is the construct ID)
T10 sequence (P12931 254-536): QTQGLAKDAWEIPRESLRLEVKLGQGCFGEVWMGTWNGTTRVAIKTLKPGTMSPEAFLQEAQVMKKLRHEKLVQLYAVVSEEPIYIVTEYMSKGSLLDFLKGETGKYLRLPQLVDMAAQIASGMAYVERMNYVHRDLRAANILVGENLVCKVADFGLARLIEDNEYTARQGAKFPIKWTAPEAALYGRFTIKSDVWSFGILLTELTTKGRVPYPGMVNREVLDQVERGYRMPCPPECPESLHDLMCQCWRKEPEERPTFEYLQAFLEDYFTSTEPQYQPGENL

T9 sequence (Q13153 249-545): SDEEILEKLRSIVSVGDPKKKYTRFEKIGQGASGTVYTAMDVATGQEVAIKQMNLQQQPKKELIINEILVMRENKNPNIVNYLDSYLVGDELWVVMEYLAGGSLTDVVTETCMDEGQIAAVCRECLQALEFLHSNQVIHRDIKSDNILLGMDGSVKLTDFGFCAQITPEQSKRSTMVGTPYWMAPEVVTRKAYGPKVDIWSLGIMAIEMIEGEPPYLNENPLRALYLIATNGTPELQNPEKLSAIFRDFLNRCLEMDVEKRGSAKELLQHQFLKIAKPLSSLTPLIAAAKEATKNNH

Take `COc1ccccc1CNC(=O)Nc1ccc2cc1OCCOCCNc1ccn3ncc-2c3n1` [compound 29]: the ΔTm at 10 µM in experiment [1] was 0.3 °C; in [2] it was 3.9 °C; in [3], 0.4 °C; in experiment [4], 0.2 °C; in [5] it was 1.4 °C; in experiment [6], 5.8 °C. For the same compound, the ΔTm at 10 µM is 2.8 °C in experiment [7], 4 °C in [8], 0.1 °C in experiment [9] and 2 °C in experiment [10].

Take `COc1cccc(CNC(=O)Nc2ccc3cc2OCCOCCNc2ccn4ncc-3c4n2)c1` [compound 30]: the ΔTm at 10 µM came to 0.1 °C in experiment [1]; 4.1 °C in [2]; 0.5 °C in [3]; 0.2 °C in [4]; 1.6 °C in experiment [5]; 5.1 °C in experiment [6]. Moreover, the ΔTm at 10 µM was 3.2 °C in experiment [7], 4.3 °C in experiment [8], 0.2 °C in [9] and 2.7 °C in experiment [10].

In the case of `COc1ccc(CNC(=O)Nc2ccc3cc2OCCOCCNc2ccn4ncc-3c4n2)cc1` [compound 31], the thermal shift (ΔTm) at 10 µM in experiment [1] was found to be 0.6 °C; in experiment [2], 4.9 °C; in [3], 0.6 °C; in [4] it was 0 °C; in experiment [5], 1.8 °C; in experiment [6] it was 7 °C. In addition, the ΔTm at 10 µM in experiment [7] stood at 4.3 °C; in experiment [8] it was 4.6 °C; in experiment [9], 0.5 °C; in experiment [10], 3.2 °C.

Regarding `COc1ccc(CNC(=O)Nc2ccc3cc2OCCOCCNc2ccn4ncc-3c4n2)cc1F` [compound 32], the ΔTm at 10 µM is 1.2 °C in experiment [1]; -4.8 °C in experiment [2]; 0.5 °C in experiment [3]; 0.2 °C in [4]; 2.4 °C in experiment [5]; 6.8 °C in experiment [6]. The ΔTm at 10 µM came out at 4 °C in [7], 4.4 °C in experiment [8], 1 °C in experiment [9] and 2.6 °C in [10].

With `COc1cc(CNC(=O)Nc2ccc3cc2OCCOCCNc2ccn4ncc-3c4n2)ccc1F` [compound 33], the ΔTm at 10 µM in experiment [1] stood at 0.7 °C; in experiment [2], 5.1 °C; in experiment [3] it was 0.2 °C; in [4], 0.5 °C; in experiment [5], 2 °C; in experiment [6] it was 6.5 °C. Also, the ΔTm at 10 µM was determined as 3.6 °C in [7], 3.7 °C in [8], 0.5 °C in [9] and 2.6 °C in experiment [10].

For `C[C@H](NC(=O)Nc1ccc2cc1OCCOCCNc1ccn3ncc-2c3n1)c1ccccc1` [compound 34], the thermal shift (ΔTm) at 10 µM is -0.1 °C in [1]; 4.4 °C in experiment [2]; -0.1 °C in experiment [3]; 0 °C in experiment [4]; 1.8 °C in experiment [5]; 6.3 °C in experiment [6]. The ΔTm at 10 µM in experiment [7] was found to be 3.3 °C; in experiment [8] it was 5.1 °C; in experiment [9], 0.3 °C; in experiment [10] it was 1.4 °C.

Turning to `CN1CCN(C(=O)Nc2ccc3cc2OCCOCCNc2ccn4ncc-3c4n2)CC1` [compound 35], the thermal shift (ΔTm) at 10 µM is -0.4 °C in experiment [1]; 1.6 °C in experiment [2]; 0.2 °C in experiment [3]; 0.7 °C in [4]; 0.3 °C in [5]; 0.8 °C in experiment [6]. The ΔTm at 10 µM is 1.8 °C in [7], 3.5 °C in [8], -0.1 °C in experiment [9] and 0.7 °C in experiment [10].
